Experimental data: patent US9388148B2, “Acylaminocycloalkyl compounds suitable for treating disorders that respond to modulation of dopamine D3 receptor” (AbbVie Deutschland GmbH & Co. KG, priority 2013, dated 2016)

What was measured:
[1] = Determination of the microsomal half-life / microsomal clearance; assay type: in vitro ADME; settings: pH 7.4; human liver microsomes, 0.5 μM test substance, 0.25 mg protein/ml, NADPH, 37° C.; read-out: Human mCl (mikrosomal clearance)
Procedure: The metabolic stability of the compounds of the invention was determined in the following assay.
The test substances were incubated in a concentration of 0.5 μM as follows:
0.5 μM test substance are preincubated together with liver microsomes from different species (from rat, human or other species) (0.25 mg of microsomal protein/ml) in 0.05 M potassium phosphate buffer of pH 7.4 in microtiter plates at 37° C. for 5 min. The reaction is started by adding NADPH (1 mg/mL). After 0, 5, 10, 15, 20 and 30 min, 50 μl aliquots are removed, and the reaction is immediately stopped and cooled with the same volume of acetonitrile. The samples are frozen until analyzed. The remaining concentration of undegraded test substance is determined by MSMS. The half-life (T1/2) is determined from the gradient of the signal of test substance/unit time plot, it being possible to calculate the half-life of the test substance, assuming first order kinetics, from the decrease in the concentration of the compound with time. The microsomal clearance (mC1) is calculated from mC1=1n2/T1/2/(content of microsomal protein in mg/ml)×1000 [ml/min/mg] (modified from references: Di, The Society for Biomoleculur Screening, 2003, 453-462; Obach, DMD, 1999 vol 27. N 11, 1350-1359).

[2] = biological target: T1, human dopamine D2L receptors (long isoform) (Homo sapiens, UniProt P14416); assay: Dopamine D2L receptor binding ([125I]iodospiperone displacement); settings: selectivity ratio, human D2L vs human D3 binding
T1 construct: expressed in transfected cells; host or cells: HEK-293
Procedure: The substance to be tested was either dissolved in methanol/Chremophor® (BASF SE) or in dimethyl sulfoxide and then diluted with water to the desired concentration.
Each assay mixture was run in triplicate. • The incubation buffer contained 50 mM tris, 120 mM NaCl, 5 mM KCl, 2 mM CaCl2, 2 mM MgCl2 and 0.1% bovine serum albumin, 10 μM quinolone and 0.1% ascorbic acid (prepared fresh daily). […] Each assay mixture was run in triplicate. • The incubation buffer contained 50 mM tris, 120 mM NaCl, 5 mM KCl, 2 mM CaCl2, 2 mM MgCl2 and 0.1% bovine serum albumin. The buffer was adjusted to pH 7.4 with HCl. c) Measurement and analysis: • After having been incubated at 25° C. for 60 minutes, the assay mixtures were filtered through a Whatman GF/B glass fiber filter under vacuum using a cell col-lecting device. The filters were transferred to scintillation viols using a filter transfer system. After 4 ml of Ultima Gold® (Packard) have been added, the samples were shaken for one hour and the radioactivity was then counted in a Beta-Counter (Packard, Tricarb 2000 or 2200CA).

T1 sequence (P14416 whole entry, canonical isoform): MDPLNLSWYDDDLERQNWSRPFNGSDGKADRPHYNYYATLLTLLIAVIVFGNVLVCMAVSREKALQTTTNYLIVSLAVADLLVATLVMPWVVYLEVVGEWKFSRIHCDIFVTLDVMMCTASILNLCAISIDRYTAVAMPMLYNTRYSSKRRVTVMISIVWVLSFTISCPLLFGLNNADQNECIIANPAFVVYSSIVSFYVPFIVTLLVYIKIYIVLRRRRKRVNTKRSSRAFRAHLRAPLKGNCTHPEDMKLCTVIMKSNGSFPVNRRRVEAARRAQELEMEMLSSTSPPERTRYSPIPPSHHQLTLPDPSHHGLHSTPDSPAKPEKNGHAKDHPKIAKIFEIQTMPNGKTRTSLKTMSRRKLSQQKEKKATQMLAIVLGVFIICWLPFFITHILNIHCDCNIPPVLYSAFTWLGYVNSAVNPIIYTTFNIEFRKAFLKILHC

SMILES | microsomal CLint at 0.5 μM [1] [µL/min/mg] | D2/D3, Ki (D2L)/Ki (D3) [2]
CC(C)(C)c1nc(C2CCC2)cc(N2CCN(CC[C@H]3C[C@H](NC(=O)[C@H]4CC[C@@H](O)CC4)C3)CC2)n1.O=C(O)C(F)(F)F [Compound 16, Cis-N-[trans-3-[2-[4-(2-tert-butyl-6-cyclobutyl-pyrimidin-4-yl)piperazin-1-yl]ethyl]cyclobutyl]-4-hydroxy-cyclohexanecarboxamide; 2,2,2-trifluoroacetic acid] | > 120 | ++ (++ >20)
COCCc1cc(N2CCN(CC[C@H]3CC[C@H](NC(=O)[C@H]4C[C@@H](O)C4)CC3)CC2)nc(C(C)(C)C)n1 [Compound 18, cis-N-[trans-4-[2-[4-[2-tert-butyl-6-(2-methoxyethyl)pyrimidin-4-yl]piperazin-1-yl]ethyl]cyclohexyl]-3-hydroxy-cyclobutanecarboxamide] | 20 to 120 | +++ (+++ >50)
CC(C)(C)c1cc(N2CCN(CC[C@H]3CC[C@H](NC(=O)[C@H]4CC[C@H](O)CC4)CC3)CC2)nc(C(C)(C)C)n1 [Compound 20, trans-N-[trans-4-[2-[4-(2,6-ditert-butylpyrimidin-4-yl)piperazin-1-yl]ethyl]cyclohexyl]-4-hydroxy-cyclohexanecarboxamide] | 20 to 120 | ++ (++ >20)
CC(C)(C)c1nc(N2CCN(CC[C@H]3CC[C@H](NC(=O)[C@H]4CC[C@H](O)CC4)CC3)CC2)cc(C(F)(F)F)n1 [Compound 21, trans-N-[trans-4-[2-[4-[2-tert-butyl-6-(trifluoromethyl)pyrimidin-4-yl]piperazin-1-yl]ethyl]cyclohexyl]-4-hydroxy-cyclohexanecarboxamide] | 20 to 120 | ++ (++ >20)
CC(C)(C)c1cc(N2CCN(CC[C@H]3CC[C@@H](NC(=O)[C@H]4CC[C@H](O)CC4)CC3)CC2)nc(C(C)(C)C)n1 [Compound 22, trans-N-[cis-4-[2-[4-(2,6-ditert-butylpyrimidin-4-yl)piperazin-1-yl]ethyl]cyclohexyl]-4-hydroxy-cyclohexanecarboxamide] | 20 to 120 | +++ (+++ >50)
CC(C)(C)c1nc(N2CCN(CC[C@H]3CC[C@@H](NC(=O)[C@H]4CC[C@H](O)CC4)CC3)CC2)cc(C(F)(F)F)n1 [Compound 23, Trans-N-[cis-4-[2-[4-[2-tert-butyl-6-(trifluoromethyl)pyrimidin-4-yl]piperazin-1-yl]ethyl]cyclohexyl]-4-hydroxy-cyclohexanecarboxamide] | 20 to 120 | +++ (+++ >50)
COCCc1cc(N2CCN(CC[C@H]3CC[C@H](NC(=O)[C@H]4CC[C@H](OC)CC4)CC3)CC2)nc(C(C)(C)C)n1 [Compound 24, trans-N-[trans-4-[2-[4-[2-tert-butyl-6-(2-methoxyethyl)pyrimidin-4-yl]piperazin-1-yl]ethyl]cyclohexyl]-4-methoxy-cyclohexanecarboxamide] | > 120 | ++ (++ >20)
CC(C)(C)c1nc(N2CCN(CCC3CCC(NC(=O)C4CCC(O)CC4)CC3)CC2)cc(C2(C)CC2)n1 (centres unmarked) [Compound 27, N-[4-[2-[4-[2-tert-butyl-6-(1-methylcyclopropyl)pyrimidin-4-yl]piperazin-1-yl]ethyl]cyclohexyl]-4-hydroxy-cyclohexanecarboxamide] | 20 to 120 | ++ (++ >20)
CC(C)(C)c1nc(N2CCN(CC[C@H]3CC[C@@H](NC(=O)[C@H]4CC[C@H](O)CC4)CC3)CC2)cc(C2(C)CC2)n1 [Compound 28, Trans-N-[cis-4-[2-[4-[2-tert-butyl-6-(1-methylcyclopropyl)pyrimidin-4-yl]piperazin-1-yl]ethyl]cyclohexyl]-4-hydroxy-cyclohexanecarboxamide] | 20 to 120 | ++ (++ >20)

The next lines start with the values.

microsomal CLint at 0.5 μM [1] [µL/min/mg] | D2/D3, Ki (D2L)/Ki (D3) [2] | SMILES
20 to 120 | + (+ >10) | CC(C)(C)c1nc(C(F)F)cc(N2CCN(CCC3CCC(NC(=O)C4CCC(O)CC4)CC3)CC2)n1 (centres unmarked) [Compound 29, N-[4-[2-[4-[2-tert-butyl-6-(difluoromethyl)pyrimidin-4-yl]piperazin-1-yl]ethyl]cyclohexyl]-4-hydroxy-cyclohexanecarboxamide]
20 to 120 | ++ (++ >20) | CC(C)(C)c1nc(C(F)F)cc(N2CCN(CC[C@H]3CC[C@@H](NC(=O)[C@H]4CC[C@H](O)CC4)CC3)CC2)n1 [Compound 30, Trans-N-[cis-4-[2-[4-[2-tert-butyl-6-(difluoromethyl)pyrimidin-4-yl]piperazin-1-yl]ethyl]cyclohexyl]-4-hydroxy-cyclohexanecarboxamide]
20 to 120 | ++ (++ >20) | CC(C)c1cc(N2CCN(CCC3CCC(NC(=O)C4CCC(O)CC4)CC3)CC2)nc(C(C)(C)C)n1 (centres unmarked) [Compound 31, N-[4-[2-[4-(2-tert-butyl-6-isopropyl-pyrimidin-4-yl)piperazin-1-yl]ethyl]cyclohexyl]-4-hydroxy-cyclohexanecarboxamide]
20 to 120 | ++ (++ >20) | CC(C)c1cc(N2CCN(CC[C@H]3CC[C@H](NC(=O)[C@H]4CC[C@H](O)CC4)CC3)CC2)nc(C(C)(C)C)n1 [Compound 32, Trans-N-[trans-4-[2-[4-(2-tert-butyl-6-isopropyl-pyrimidin-4-yl)piperazin-1-yl]ethyl]cyclohexyl]-4-hydroxy-cyclohexanecarboxamide]
20 to 120 | +++ (+++ >50) | COCCc1cc(N2CCN(CCC3CCC(NC(=O)C4CCC(O)CC4)CC3)C[C@H]2C)nc(C(C)(C)C)n1 (stereo partly drawn) [Compound 33, N-[4-[2-[(3R)-4-[2-tert-butyl-6-(2-methoxyethyl)pyrimidin-4-yl]-3-methyl-piperazin-1-yl]ethyl]cyclohexyl]-4-hydroxy-cyclohexanecarboxamide]
20 to 120 | +++ (+++ >50) | COCCc1cc(N2CCN(CC[C@H]3CC[C@H](NC(=O)[C@H]4CC[C@H](O)CC4)CC3)C[C@H]2C)nc(C(C)(C)C)n1 [Compound 34, trans-N-[trans-4-[2-[(3R)-4-[2-tert-butyl-6-(2-methoxyethyl)pyrimidin-4-yl]-3-methyl-piperazin-1-yl]ethyl]cyclohexyl]-4-hydroxy-cyclohexanecarboxamide]
20 to 120 | + (+ >10) | CC(C)(C)c1nc(C2CCCC2)cc(N2CCN(CC[C@H]3CC[C@H](NC(=O)[C@H]4CC[C@H](O)CC4)CC3)CC2)n1 [Compound 35, trans-N-[trans-4-[2-[4-(2-tert-butyl-6-cyclopentyl-pyrimidin-4-yl)piperazin-1-yl]ethyl]cyclohexyl]-4-hydroxy-cyclohexanecarboxamide]
20 to 120 | +++ (+++ >50) | CC(C)(C)c1nc(C2CCCC2)cc(N2CCN(CC[C@H]3CC[C@@H](NC(=O)[C@H]4CC[C@H](O)CC4)CC3)CC2)n1 [Compound 36, trans-N-[cis-4-[2-[4-(2-tert-butyl-6-cyclopentyl-pyrimidin-4-yl)piperazin-1-yl]ethyl]cyclohexyl]-4-hydroxy-cyclohexanecarboxamide]
20 to 120 | +++ (+++ >50) | COCc1cc(N2CCN(CC[C@H]3CC[C@H](NC(=O)[C@H]4CC[C@H](O)CC4)CC3)CC2)nc(C(C)(C)C)n1 [Compound 37, trans-N-[trans-4-[2-[4-[2-tert-butyl-6-(methoxymethyl)pyrimidin-4-yl]piperazin-1-yl]ethyl]cyclohexyl]-4-hydroxy-cyclohexanecarboxamide]
< 20 | ++ (++ >20) | CC(C)(C)c1nc(C2CCC2)cc(N2CCN(CC[C@H]3CC[C@H](NC(=O)[C@H]4C[C@H](O)C4)CC3)CC2)n1.O=C(O)C(F)(F)F [Compound 38, trans-N-[trans-4-[2-[4-(2-tert-butyl-6-cyclobutyl-pyrimidin-4-yl)piperazin-1-yl]ethyl]cyclohexyl]-3-hydroxy-cyclobutanecarboxamide; 2,2,2-trifluoroacetic acid]
